Values after ≈ are worked out from the molar mass of the structure shown.
What was measured:
[1] = tested on: methicillin-susceptible Staphylococcus aureus (MSSA); experiment: Antibacterial assay (Test C, broth microdilution MIC) against MSSA; format: cell-based; details: minimal inhibitory concentration, 37° C., growth read after 24 to 48 hours at OD 600 nm, read-out: MSSA (MIC ug/ml)
Procedure: (§1) Test C. Antibacterial Assay.
(§2) Antibacterial activity can be determined as per Clinical and Laboratory Standards Institute (CLSI) guidelines using a broth microdilution assay in which log-phase bacteria are grown at 37° C. in appropriate medium containing two-fold serial dilutions of a compound to yield final concentrations ranging from 256 to 0.06 μg/mL. For determination of minimal inhibitory concentration (MIC) values, bacterial growth is monitored after 24 to 48 hours by measuring optical density at 600 nm.
(§3) Using a procedure similar to Test C, representative compounds of the invention were tested against methicillin-susceptible Staphylococcus aureus (MSSA) and methicillin-resistant Staphylococcus aureus (MRSA).

[2] = tested on: methicillin-resistant Staphylococcus aureus (MRSA); experiment: Antibacterial assay (Test C, broth microdilution MIC) against MRSA; format: cell-based; details: minimal inhibitory concentration, 37° C., growth read after 24 to 48 hours at OD 600 nm, read-out: MRSA (MIC ug/ml)
Procedure: as §1, §2, §3

SMILES	MIC [1]	MIC [2]
C[n+]1cc(-c2ccccc2)nc2ccccc21 [Example 1]	2 µg/mL	8 µg/mL
C[n+]1cc(-c2cccc(F)c2)nc2ccccc21 [Example 2]	2 µg/mL	4 µg/mL
C[n+]1cc(-c2cccc(-c3ccccc3)c2)nc2ccccc21 [Example 3]	0.25 µg/mL	0.25 µg/mL
C[n+]1cc(-c2cccc(C(C)(C)C)c2)nc2ccccc21 [Example 4]	0.5 µg/mL	1 µg/mL
C[n+]1cc(-c2ccc(C(C)(C)C)cc2)nc2ccccc21 [Example 5]	0.5 µg/mL	1 µg/mL
COC(=O)c1cc(-c2ccc(C(C)(C)C)cc2)cc(-c2c[n+](C)c3ccccc3n2)c1 [Example 6]	0.5 µg/mL	1 µg/mL
C[n+]1cc(-c2cc(C(N)=O)cc(-c3ccc(C(C)(C)C)cc3)c2)nc2ccccc21 [Example 7]	2 µg/mL	2 µg/mL
C[n+]1cc(-c2cc(C(=O)NCCO)cc(-c3ccc(C(C)(C)C)cc3)c2)nc2ccccc21 [Example 8]	4 µg/mL	4 µg/mL
CC(C)(C)c1ccc(-c2cc(C(=O)NCCN)cc(-c3cnc4ccccc4n3)c2)cc1 [Example 9]	4 µg/mL (≈ 9.42 µM)	4 µg/mL (≈ 9.42 µM)
CC(C)(C)c1ccc(-c2cnc3c(CNC(=N)N)cccc3n2)cc1 [Example 10]	2 µg/mL (≈ 6 µM)	2 µg/mL (≈ 6 µM)
CC(C)(C)c1cccc(-c2cnc3c(CNC(=N)N)cccc3n2)c1 [Example 11]	1 µg/mL (≈ 3 µM)	2 µg/mL (≈ 6 µM)
CC(C)(C)c1ccc(-c2ncnc3c(CNC(=N)N)cccc23)cc1 [Example 12]	2 µg/mL (≈ 6 µM)	4 µg/mL (≈ 12 µM)
CC(=N)NCc1cccc2c(-c3ccc(C(C)(C)C)cc3)ncnc12 [Example 13]	32 µg/mL (≈ 96.3 µM)	64 µg/mL (≈ 193 µM)
CC(C)(C)c1ccc(-c2ncnc3c(CN)cccc23)cc1 [Example 14]	32 µg/mL (≈ 110 µM)	64 µg/mL (≈ 220 µM)
Cc1cccc(-c2nc3ccccc3nc2NCCN)c1 [Example 15]	> 64 µg/mL	> 64 µg/mL
CC(C)(C)c1ccc(-c2cccc3c(CNC(=N)N)ncnc23)cc1 [Example 16]	8 µg/mL (≈ 24 µM)	64 µg/mL (≈ 192 µM)
CC(C)(C)c1ccc(-c2ccnc3c(CNC(=N)N)ccnc23)cc1 [Example 17]	4 µg/mL (≈ 12 µM)	8 µg/mL (≈ 24 µM)
CC(C)(C)c1ccc(-c2ccnc3c(CN)ccnc23)cc1 [Example 18]	> 64 µg/mL	> 64 µg/mL
CC(C)(C)c1ccc(-c2nnc(CNC(=N)N)c3ccccc23)cc1 [Example 19]	16 µg/mL (≈ 48 µM)	
CC(C)(C)c1cccc(-c2nc(CNC(=N)N)c3ccccc3n2)c1 [Example 20]	4 µg/mL (≈ 12 µM)	
CC(C)(C)c1cccc(-c2cnc3cccc(CNC(=N)N)c3n2)c1 [Example 21]	2 µg/mL (≈ 6 µM)	2 µg/mL (≈ 6 µM)
CC(C)(C)c1cccc(-c2cnc3cc(CNC(=N)N)ccc3n2)c1 [Example 22]	4 µg/mL (≈ 12 µM)	8 µg/mL (≈ 24 µM)

Reference: US9822108B2, “Antimicrobial agents” (RUTGERS, THE STATE UNIVERSITY OF NEW JERSEY, priority 2012, dated 2017)
